This is an account of results in patent US8912216B2, “Hetaryl-[1,8]naphthyridine derivatives” (Merck Patent GmbH, priority 2010, dated 2014).

Structures can show the parent of a compound that is named as a salt. Where two headings read alike, the source gives them in different places.

The target of one assay is T1, GST-ALK5 (Homo sapiens, UniProt P36897).
T1 sequence (P36897 34-503): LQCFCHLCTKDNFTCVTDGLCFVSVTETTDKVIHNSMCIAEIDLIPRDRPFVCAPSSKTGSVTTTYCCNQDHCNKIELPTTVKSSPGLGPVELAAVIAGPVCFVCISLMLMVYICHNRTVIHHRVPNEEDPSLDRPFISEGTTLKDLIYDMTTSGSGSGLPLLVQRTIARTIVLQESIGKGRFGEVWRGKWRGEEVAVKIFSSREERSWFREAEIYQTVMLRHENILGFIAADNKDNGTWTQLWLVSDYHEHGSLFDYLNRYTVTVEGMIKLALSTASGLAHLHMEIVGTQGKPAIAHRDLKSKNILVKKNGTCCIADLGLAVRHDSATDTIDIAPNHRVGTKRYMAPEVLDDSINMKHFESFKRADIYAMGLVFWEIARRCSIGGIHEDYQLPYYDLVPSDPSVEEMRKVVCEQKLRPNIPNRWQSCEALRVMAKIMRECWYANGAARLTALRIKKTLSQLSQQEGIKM
Put plainly: In-vitro (enzyme) kinase assay, 384-well flashplate (Example 36). The assay is classed as biochemical. The conditions noted are these: GST-ALK5, GST-SMAD2 substrate, 3 mM ATP, 30° C., 45 min; read-out: TβR activity (Example 36). As to the method: In-vitro (Enzyme) Assay for Determination of the Efficacy of Inhibitors of the Inhibition of TGF-beta-Mediated Effects
The kinase assay was carried out as 384-well flashplate assay. 31.2 nM of GST-ALK5, 439 nM of GST-SMAD2 and 3 mM of ATP (with 0.3 μCi of ^33P-ATP/well) were incubated in a total volume of 35 μl (20 mM of HEPES, 10 mM of MgCl2, 5 mM of MnCl2, 1 mM of DTT, 0.1 of BSA, pH 7.4) without or with test substance (5-10 concentrations) at 30° C. for 45 min. The reaction was stopped using 25 μl of 200 mM EDTA solution, filtered with suction at room temperature after 30 min, and the wells were washed with 3 times 100 μl of 0.9% NaCl solution. Radioactivity was measured in the TopCount. The IC50 values were calculated using RS1.

Assay [1] has as its system TGF-beta-induced phosphorylation of Smad2 and Smad3 in Mv1-Lu cells. Put plainly: Inhibition of Smad2/3 phosphorylation in Mv1Lu cells (Example 35A). The assay is classed as cell-based, mink Mustela vison. The conditions noted are these: Neogale vison, read-out: TβR activity (Example 35A). Here is the method:
Inhibition of Smad2/3 Phosphorylation in Mv1Lu Cells by TGF-bta Receptor I Kinase Inhibitors
This assay was used to determine the inhibitory potency of compounds on TGF-beta-induced phosphorylation of Smad2 (Ser465/467) and Smad3 (Ser423/425). Mv1-Lu cells (lung epithelial cell line from mink Mustela vison; ATCC number: CCL-64) were seeded in DMEM (Invitrogen) supplemented with 10% fetal bovine serum (Pan Biotech) at a defined cell density in 24-well or 96-well plates (24-well plate: 1.5×10^5 cells per well; 96-well plate: 4×10^4 cells per well). Cell cultures were incubated in DMEM at 37° C. and 10% CO2. On the next day, the medium was replaced and cells were serum-starved for 16-20 hours. The following day, serial dilutions of compounds were added to the wells, pre-incubated for 1.5 hrs before recombinant TGF-beta 1 ligand (final concentration 5 ng/ml; R&D systems) was added. After one hour of ligand stimulation, lysates were prepared and analyzed using an enzyme-linked immunosorbent assay kit (PathScan Phospho-Smad2 Kit, Cell Signaling Technologies). The ELISA detects phosphorylated Smad2 as well as phosphorylated Smad3 with the phospho-specific antibody. TGF-beta stimulated cells and unstimulated cells served as positive and negative controls (100% and background control). The concentration of the vehicle DMSO was kept constant at 0.2% (v/v) in all wells. Dose-response relationships were fitted using curve fitting algorithms of the RS1 statistics software package (Brooks Automation Inc. RS/1—Statistical Tools Handbook. Release 6.2) to determine the concentration at which half-maximal inhibition (IC50) of Smad2/3 phosphorylation was achieved.

[2] abbreviates: Mv1-Lu cells, TGF-beta 1 5 ng/ml, phospho-Smad2/3 ELISA.

In the case of `Fc1ccc(Cl)cc1-c1cc(-c2cncc(-c3cnn(CCN4CCOCC4)c3)c2)c2cccnc2n1` [compound 96, 2-(5-Chloro-2-fluoro-phenyl)-4-{5-[1-(2-morpholin-4-yl-ethyl)-1H-pyrazol-4-yl]-pyridin-3-yl}-[1,8]naphthyridine], the IC50 (at GST-ALK5; in assay [1] (setting [2])) was less than 100 nM each time.

For the molecule `Fc1ccccc1-c1cc(-c2cncc(-n3cccn3)c2)c2cccnc2n1` [compound 79, 2-(2-Fluoro-phenyl)-4-(5-pyrazol-1-yl-pyridin-3-yl)-[1,8]naphthyridine], the IC50 on GST-ALK5 lay in the range of 100 to 1000 nM; in assay [1] (setting [2]), 1000 to 10000 nM.

As to `Fc1ccc(F)c(-c2cc(-c3cncc(-c4cnn(CCN5CCCC5)c4)c3)c3cccnc3n2)c1` [compound 26, 2-(2,5-Difluoro-phenyl)-4-{5-[1-(2-pyrrolidin-1-yl-ethyl)-1H-pyrazol-4-yl]-pyridin-3-yl}-[1,8]naphthyridine], the IC50 (on GST-ALK5; in assay [1] (setting [2])) was less than 100 nM throughout.

On to `NS(=O)(=O)c1ccc(-c2cncc(-c3cc(-c4ccccc4F)nc4ncccc34)c2)cc1` [compound 78, 4-{5-[2-(2-Fluoro-phenyl)-[1,8]naphthyridin-4-yl]-pyridin-3-yl}-benzenesulfonamide], for which the IC50 on GST-ALK5 is less than 100 nM; in assay [1] (setting [2]), 100 to 1000 nM.

For `Cn1cc(-c2cncc(-c3cc(-c4cc(F)c(F)cc4F)nc4ncccc34)c2)cn1` [compound 17, 4-[5-(1-Methyl-1H-pyrazol-4-yl)-pyridin-3-yl]-2-(2,4,5-trifluoro-phenyl)-[1,8]naphthyridine], the IC50 on GST-ALK5 is 100 to 1000 nM; in assay [1] (setting [2]) it was 1000 to 10000 nM.

As to `Fc1ccc(Cl)cc1-c1cc(-c2ccc(-c3ccccc3)nc2)c2cccnc2n1` [compound 5599, 2-(5-Chloro-2-fluoro-phenyl)-4-(6-phenyl-pyridin-3-yl)-[1,8]naphthyridine], the IC50 (at GST-ALK5; in assay [1] (setting [2])) was more than 10000 nM each time.

As for `CC1(C)CC(=O)Nc2ccc(-c3cncc(-c4cc(-c5cc(Cl)ccc5F)nc5ncccc45)c3)cc21` [compound 157, 6-{5-[2-(5-Chloro-2-fluoro-phenyl)-[1,8]naphthyridin-4-yl]-pyridin-3-yl}-4,4-dimethyl-3,4-dihydro-1H-quinolin-2-one], the IC50 (at GST-ALK5; in assay [1] (setting [2])) was 100 to 1000 nM in each case.

With `Fc1ccc(Cl)cc1-c1cc(-c2cncc(-c3ccc4c(c3)CNCC4)c2)c2cccnc2n1` [compound 136, 2-(5-Chloro-2-fluoro-phenyl)-4-[5-(1,2,3,4-tetrahydro-isoquinolin-7-yl)-pyridin-3-yl]-[1,8]naphthyridine], the IC50 (on GST-ALK5; in assay [1] (setting [2])) was less than 100 nM each time.

As to `Cc1ccn(-c2cc(-c3cncc(-c4ccc(N5CCN(C)CC5)cc4)c3)c3cccnc3n2)n1` [compound 128, 4-{5-[4-(4-Methyl-piperazin-1-yl)-phenyl]-pyridin-3-yl}-2-(3-methyl-pyrazol-1-yl)-[1,8]naphthyridine], the IC50 (at GST-ALK5; in assay [1] (setting [2])) was 1000 to 10000 nM in each case.

As to `NCCOc1cccc(-c2cncc(-c3cc(-c4cc(Cl)ccc4F)nc4ncccc34)c2)c1` [compound 143, 2-(3-{5-[2-(5-Chloro-2-fluoro-phenyl)-[1,8]naphthyridin-4-yl]-pyridin-3-yl}-phenoxy)-ethylamine], the IC50 is less than 100 nM at GST-ALK5 and 100 to 1000 nM in assay [1] (setting [2]).

As to `Nc1ncc(-c2cc(-c3ccccc3F)nc3ncccc23)c2ccncc12` [compound 72, 4-[2-(2-fluoro-phenyl)-[1,8]naphthyridin-4-yl]-[2,7]naphthyridin-1-ylamine], the IC50 at GST-ALK5 was less than 100 nM; in assay [1] (setting [2]), 100 to 1000 nM.

As to `Fc1ccccc1-c1cc(-c2cncc(-c3cnn(C4CCNCC4)c3)c2)c2cccnc2n1` [compound 29, 2-(2-Fluoro-phenyl)-4-[5-(1-piperidin-4-yl-1H-pyrazol-4-yl)-pyridin-3-yl]-[1,8]naphthyridine dihydrochloride], the IC50 (on GST-ALK5; in assay [1]) was less than 100 nM in each case.

For the molecule `Nc1nccc(-c2cncc(-c3cc(-c4cc(Cl)ccc4F)nc4ncccc34)c2)n1` [compound 109, 4-{5-[2-(5-Chloro-2-fluoro-phenyl)-[1,8]naphthyridin-4-yl]-pyridin-3-yl}-pyrimidin-2-ylamine], the IC50 at GST-ALK5 was less than 100 nM; in assay [1] (setting [2]), 100 to 1000 nM.

With `Nc1ncc(-c2cc(-c3cc(F)ccc3F)nc3ncccc23)c2ccncc12` [compound 73, 4-[2-(2,5-Difluoro-phenyl)-[1,8]naphthyridin-4-yl]-[2,7]naphthyridin-1-ylamine], the IC50 (on GST-ALK5; in assay [1] (setting [2])) was less than 100 nM in each case.

Take `Fc1ccc(Cl)cc1-c1cc(-c2cncc(-c3ccnc(N4CCOCC4)c3F)c2)c2cccnc2n1` [compound 108, 2-(5-Chloro-2-fluoro-phenyl)-4-(3′-fluoro-2′-morpholin-4-yl-[3,4′]bipyridinyl-5-yl)-[1,8]naphthyridine]: the IC50 (at GST-ALK5; in assay [1] (setting [2])) was 100 to 1000 nM throughout.

For `CN1CCC(n2cc(-c3cncc(-c4cc(-c5ccccc5F)nc5ncccc45)c3)cn2)CC1` [compound 30, 2-(2-fluoro-phenyl)-4-{5-[1-(1-methyl-piperidin-4-yl)-1H-pyrazol-4-yl]-pyridin-3-yl}-[1,8]naphthyridine], the IC50 (at GST-ALK5; in assay [1] (setting [2])) was less than 100 nM in each case.

In the case of `CN1CCC(n2cc(-c3cncc(-c4cc(-c5cc(F)ccc5F)nc5ncccc45)c3)cn2)CC1` [compound 35, 2-(2,5-Difluoro-phenyl)-4-{5-[1-(1-methyl-piperidin-4-yl)-1H-pyrazol-4-yl]-pyridin-3-yl}-[1,8]naphthyridine], the IC50 (at GST-ALK5; in assay [1] (setting [2])) was less than 100 nM each time.

For `Fc1ccc(Cl)cc1-c1cc(-c2cncc(-c3cccc(C4CCNCC4)c3)c2)c2cccnc2n1` [compound 159, 2-(5-Chloro-2-fluoro-phenyl)-4-[5-(3-piperidin-4-yl-phenyl)-pyridin-3-yl]-[1,8]naphthyridine], the IC50 on GST-ALK5 is less than 100 nM; in assay [1] (setting [2]), 100 to 1000 nM.

With `Fc1ccc(Cl)cc1-c1cc(-c2cccc(-c3ccccc3)n2)c2cccnc2n1` [compound 12, 2-(5-Chloro-2-fluoro-phenyl)-4-(6-phenyl-pyridin-2-yl)-[1,8]naphthyridine], the IC50 (at GST-ALK5; in assay [1] (setting [2])) was more than 10000 nM in each case.

Take `Fc1ccc(Cl)cc1-c1cc(-c2cncc(-c3cccc(C(F)(F)F)n3)c2)c2cccnc2n1` [compound 106, 2-(5-Chloro-2-fluoro-phenyl)-4-(6-trifluoromethyl-[2,3′]bipyridinyl-5′-yl)-[1,8]naphthyridine]: the IC50 at GST-ALK5 is 100 to 1000 nM; in assay [1] (setting [2]) it was more than 10000 nM.

Turning to `CN1CC[C@H](n2cc(-c3cncc(-c4cc(-c5ccccc5F)nc5ncccc45)c3)cn2)C1` [compound 69, 2-(2-Fluoro-phenyl)-4-{5-[1-((S)-1-methyl-pyrrolidin-3-yl)-1H-pyrazol-4-yl]-pyridin-3-yl}-[1,8]naphthyridine], the IC50 (on GST-ALK5; in assay [1] (setting [2])) was less than 100 nM throughout.

On to `CN1CCN(c2nc(-c3cncc(-c4cc(-c5cc(Cl)ccc5F)nc5ncccc45)c3)no2)CC1` [compound 56, 2-(5-chloro-2-fluoro-phenyl)-4-{5-[5-(4-methyl-piperazin-1-yl)-[1,2,4]oxadiazol-3-yl]-pyridin-3-yl}-[1,8]naphthyridine], for which the IC50 at GST-ALK5 was less than 100 nM; in assay [1] (setting [2]), 100 to 1000 nM.
